Activity calls are given as the source filed them. The rule behind the calls is not given here.
Key:
HCC1428 [1] = assay: Induction of oxidative stress in tamoxifen-induced senescent human HCC1428 cells assessed as increase in mitochondrial SOD2 level at 1 to 5 uM incubated for 24 hrs by MitoSOX red superoxide indicator based fluorescence analysis; format: functional, cell-based; details: dose 1-5 µM
HCC1428 [2] = assay: Induction of ubiquitin-dependent mitophagy in tamoxifen-induced senescent human HCC1428 cells assessed as increase in PINK1 level at 5 uM by immunostaining based imaging cytometric analysis; format: functional, cell-based
HCC1428 [3] = assay: Induction of […] in human tamoxifen-induced senescent human HCC1428 cells at 1 to 5 uM incubated for 24 hrs by Annexin V-FITC staining based flow cytometric analysis; format: functional, cell-based; details: dose 1-5 µM
ZR-75-30 [4] = assay: Induction of […] in human tamoxifen-induced senescent human ZR-75-30 cells at 1 to 5 uM by incubated for 24 hrs Annexin V-FITC staining based flow cytometric analysis; format: functional, cell-based; details: dose 1-5 µM
T47D [5] = assay: Antitumor activity against ER-positive human T47D cells xenografted in Danio rerio embryo assessed as increase in p21 mRNA level at 1 to 5 uM administered for 48 hrs by RT-PCR analysis; format: functional, cell-based; details: dose 1-5 µM
Mitochondrial membrane [6] = assay: Induction of mitochondrial membrane potential depolarization in human MCF-10F cells at 5 uM incubated for 24 hrs by 7-AAD staining based flow cytometric analysis; format: cell membranes
HCC1428 [7] = assay: Induction of autophagy in tamoxifen-induced senescent human HCC1428 cells assessed as increase in ULK1 level at 1 to 5 uM by immunostaining based imaging cytometric analysis; format: functional, cell-based; details: dose 1-5 µM
ZR-75-30 [8] = assay: Induction of apoptosis in tamoxifen-induced senescent human ZR-75-30 cells assessed as decrease in HSP90 level incubated for 24 hrs by immunostaining based imaging cytometric analysis; format: functional, cell-based
HCC1428 [9] = assay: Induction of autophagosome formation in tamoxifen-induced senescent human HCC1428 cells assessed as increase in ubiquitin level at 1 to 5 uM by immunostaining based imaging cytometric analysis; format: functional, cell-based; details: dose 1-5 µM
ZR-75-30 [10] = assay: Induction of apoptosis in tamoxifen-induced senescent human ZR-75-30 cells assessed as increase in caspase 3 level incubated for 24 hrs by immunostaining based imaging cytometric analysis; format: functional, cell-based
HCC1428 [11] = assay: Induction of oxidative stress in tamoxifen-induced senescent human HCC1428 cells assessed as increase in mitochondrial superoxide production at 1 to 5 uM incubated for 24 hrs by MitoSOX red superoxide indicator based fluorescence analysis; format: functional, cell-based; details: dose 1-5 µM
CAMA-1 [12] = assay: Induction of apoptosis in human CAMA-1 cells assessed as phosphatidylserine externalization at 1 to 5 uM incubated for 24 hrs by Annexin V-FITC staining based flow cytometric analysis; format: functional, cell-based; details: dose 1-5 µM
HCC1428 [13] = assay: Effect on phosphorylated to unphosphorylated AKT ratio in tamoxifen-induced senescent human HCC1428 cells assessed as decrease in phosphorylated AKT level at 1 to 5 uM incubated for 24 hrs by Western blotting analysis; format: functional, cell-based; details: dose 1-5 µM
HCC1428 [14] = assay: Induction of oxidative stress in tamoxifen-induced senescent human HCC1428 cells assessed as increase in cytosolic SOD1 level at 1 to 5 uM incubated for 24 hrs by MitoSOX red superoxide indicator based fluorescence analysis; format: functional, cell-based; details: dose 1-5 µM
HCC1428 [15] = assay: Induction of mitochondrial dysfunction in tamoxifen-induced senescent human HCC1428 cells assessed as decrease in spare respiratory capacity at 5 uM incubated for 6 hrs by real-time analysis; format: functional, cell-based
HCC1428 [16] = assay: Induction of mitochondrial dysfunction in human HCC1428 cells assessed as decrease in maximal respiration at 5 uM incubated for 6 hrs by real time analysis; format: functional, cell-based
MCF-10F [17] = assay: Induction of apoptosis in tamoxifen-induced senescent human MCF-10F cells assessed as decrease in Bcl2 level at 1 to 5 uM incubated for 24 hrs by Western blot analysis; format: functional, cell-based; details: dose 1-5 µM
HCC1428 [18] = assay: Induction of apoptosis in human HCC1428 cells assessed as decrease in Bcl2 level at 1 to 5 uM incubated for 24 hrs by Western blot analysis; format: functional, cell-based; details: dose 1-5 µM
MCF-10F [19] = assay: Induction of mitochondrial dysfunction in tamoxifen-induced senescent human MCF-10F cells assessed as decrease in coupling efficiency at 5 uM incubated for 6 hrs by real-time analysis; format: functional, cell-based
HCC1500 [20] = assay: Induction of senescence in human HCC1500 cells assessed as increase in IL-8 level at 5 uM incubated for 24 hrs by immunostaining based imaging cytometric analysis; format: functional, cell-based
Mitochondrial membrane [21] = assay: Induction of mitochondrial membrane potential depolarization in human HCC1428 cells at 1 uM incubated for 24 hrs by 7-AAD staining based flow cytometric analysis; format: cell membranes
HCC1428 [22] = assay: Induction of apoptosis in tamoxifen-induced senescent human HCC1428 cells assessed as decrease in phosphorylated AKT level at 1 to 5 uM incubated for 24 hrs by Western blotting analysis; format: functional, cell-based; details: dose 1-5 µM
MCF-10F [23] = assay: Induction of mitochondrial dysfunction in tamoxifen-induced senescent human MCF-10F cells assessed as decrease in spare respiratory capacity at 5 uM incubated for 6 hrs by real-time analysis; format: functional, cell-based
HCC1428 [24] = assay: Effect on Bcl-rambo protein level in tamoxifen-induced senescent human HCC1428 cells at 1 to 5 uM incubated for 24 hrs by Western blot analysis; format: functional, cell-based; details: dose 1-5 µM
HCC1428 [25] = assay: Induction of autophagosome formation in tamoxifen-induced senescent human HCC1428 cells assessed as increase in LC3B level at 1 to 5 uM by immunostaining based imaging cytometric analysis; format: functional, cell-based; details: dose 1-5 µM
CAMA-1 [26] = assay: Induction of senescence in human CAMA-1 cells assessed as […] in beta-galactosidase activity at 5 uM incubated for 24 hrs by immunostaining based imaging cytometric analysis; format: functional, cell-based
Mitochondrial membrane [27] = assay: Induction of mitochondrial membrane potential depolarization in tamoxifen-induced senescent human ZR-75-30 cells assessed as increase in depolarized dead cell level at 1 to 5 uM incubated for 24 hrs by 7-AAD staining based flow cytometric analysis; format: cell membranes; details: dose 1-5 µM
ZR-75-30 [28] = assay: Induction of oxidative stress in tamoxifen-induced senescent human ZR-75-30 cells assessed as increase in cytosolic SOD1 level at 1 to 5 uM incubated for 24 hrs by MitoSOX red superoxide indicator based fluorescence analysis; format: functional, cell-based; details: dose 1-5 µM
Mitochondrial membrane [29] = assay: Induction of mitochondrial membrane potential depolarization in human ZR-75-30 cells assessed as increase in fraction of depolarized dead cells at 5 uM incubated for 24 hrs by 7-AAD staining based flow cytometric analysis; format: cell membranes
HCC1500 [30] = assay: Induction of apoptosis in human HCC1500 cells assessed as phosphatidylserine externalization at 1 to 5 uM incubated for 24 hrs by Annexin V-FITC staining based flow cytometric analysis; format: functional, cell-based; details: dose 1-5 µM
HCC1428 [31] = assay: Induction of mitochondrial dysfunction in human HCC1428 cells assessed as decrease in spare respiratory capacity at 5 uM incubated for 6 hrs by real time analysis; format: functional, cell-based
T47D [32] = assay: Antitumor activity against ER-positive human T47D cells xenografted in Danio rerio embryo assessed as decrease in tumor size at 1 to 5 uM administered for 48 hrs by imaging analysis; format: functional, cell-based; details: dose 1-5 µM
HCC1428 [33] = assay: Induction of mitochondrial dysfunction in tamoxifen-induced senescent human HCC1428 cells assessed as increase in proton leak at 5 uM incubated for 6 hrs by real-time analysis; format: functional, cell-based
HCC1428 [34] = assay: Induction of mitochondrial dysfunction in human HCC1428 cells assessed as increase in proton leak at 5 uM incubated for 6 hrs by real time analysis; format: functional, cell-based
BJ = assay: Cytotoxicity against human BJ cells assessed as effect on metabolic activity at 1 to 10 uM incubated for 24 hrs by MTT assay; format: toxicity, cell-based; details: dose 1-10 µM

CC(=O)Oc1ccc2c(=O)c(OCCCC[P+](c3ccccc3)(c3ccccc3)c3ccccc3)c(-c3ccc4c(c3)OC(c3ccccc3)(c3ccccc3)O4)oc2c1.[I-] was tested, and the Activity (HCC1428 [1]) was “Active”, the Activity (HCC1428 [2]) was “Active” and the Activity (HCC1428 [3]) was “Active”. For the same compound, the Activity (ZR-75-30 [4]) was “Active”, the Activity (T47D [5]) was “Active” and the Activity (Mitochondrial membrane [6]) was “inactive”. For the same compound, the Activity (HCC1428 [7]) was “Active”, the Activity (ZR-75-30 [8]) was “Active” and the Activity (HCC1428 [9]) was “inactive”. For the same compound, the Activity (ZR-75-30 [10]) was “Active”, the Activity (HCC1428 [11]) was “Active” and the Activity (CAMA-1 [12]) was “Active”. The Activity (HCC1428 [13]) was “inactive”, the Activity (HCC1428 [14]) was “Active” and the Activity (HCC1428 [15]) was “Active”. For the same compound, the Activity (HCC1428 [16]) was “Active”, the Activity (MCF-10F [17]) was “inactive” and the Activity (HCC1428 [18]) was “Active”. The Activity (MCF-10F [19]) was “inactive”, the Activity (HCC1500 [20]) was “inactive” and the Activity (Mitochondrial membrane [21]) was “Active”. The Activity (HCC1428 [22]) was “Active”, the Activity (MCF-10F [23]) was “inactive” and the Activity (HCC1428 [24]) was “inactive”. The Activity (HCC1428 [25]) was “inactive”, the Activity (CAMA-1 [26]) was “Active” and the Activity (Mitochondrial membrane [27]) was “Active”. For the same compound, the Activity (ZR-75-30 [28]) was “Active”, the Activity (Mitochondrial membrane [29]) was “Active” and the Activity (HCC1500 [30]) was “Active”. The Activity (HCC1428 [31]) was “Active”, the Activity (T47D [32]) was “Active” and the Activity (HCC1428 [33]) was “Active”. The Activity (HCC1428 [34]) was “Active” and the Activity (BJ) was “Non-toxic”.
